Measurements: publication PMC3591457, “Biodistribution and Elimination Study of Fluorine-18 Labeled N^ε-Carboxymethyl-Lysine following Intragastric and Intravenous Administration” (PLoS ONE, 2013)

Assays:
[1] = tested on: RAW264.7 cells; experiment: Cell uptake of ^18F-CML and native CML in RAW264.7 cells; assay type: cell-based; conditions: incubation 2 hours
Procedure: (§1) To compare the different bioactivities of CML and ^18F-CML, two cell lines were evaluated for their capacity to take up native CML and the fluorobenzoylated derivative ^18F-CML. RAW264.7 macrophages and HepG2 liver cells were cultured in DMEM/LOWGLUCOSE, supplemented with 10% fetal bovine serum (FBS), 4.0 mmol/L L-glutamine, 110 mg/L sodium pyruvate, 100 U/mL penicillin, and 100 mg/L streptomycin at 37°C and 5% CO2.
(§2) For ^18F-CML cell uptake studies, RAW264.7 cells and HepG2 cells were seeded into 24-well plates at a density of 4×10^5 cells per well. Radio-tracer ^18F-CML (0.5 µCi/well, 3 µmol/mL) was incubated in a 37°C water bath for 15, 30, 60, and 120 min. At each time point the cells were washed 3 times with phosphate-buffered saline (PBS). The supernatant, washing-up liquid (unbound activity) and the pellet (cell-bound activity) were transferred to new tubes. Triplicates of the counting tubes containing supernatant and cell pellet were counted individually using a gamma counter for 1 min. For the blocking experiment, the uptake was carried out in the presence of the non-radioactive CML(10 µmol/mL) and processed similarly as described above. The uptake (%) of radio-tracer into the cell was determined using a gamma counter according to the following equation: [drawing 1]
(§3) For CML cell uptake ratio studies, unaltered CML (10 µmol/mL) was added to RAW264.7 and HepG2 cell pellets individually. The total proteins of each cell line were initially extracted from the lysates of 4×10^5 cells. […] The supernatants were purified and detected usingby the method described by Drusch et al., which uses an RP-HPLC method with an ortho-phthaldialdehyde (OPA)-derivatisation and fluorescence detection suited for automation. The HPLC analysis method used a 250 mm×4.6 mm C18 column (GROM-SIL 100 ODS-0 AB, Herrenberg, Germany) and detected the fluorescence excitation at 340 nm and emission at 455 nm. The peak identification of CML was confirmed by the retention time and standard addition and was quantified using an external standard. The amount of CML was calculated and expressed as a percentage.

[2] = tested on: HepG2 cells; experiment: Cell uptake of ^18F-CML and native CML in HepG2 cells; assay type: cell-based; conditions: incubation 2 hours
Procedure: as §1, §2, §3

## NC(CCCCNCC(=O)O)C(=O)O (stereo not shown) [CML, N^ε-carboxymethyl-lysine]
[1]; P<0.01
  Uptake ratio of unaltered CML, amount less than ^18F-CML: 0.3%
[1]; n=3
  Uptake of unaltered CML: 8.2 µg/mg of cell protein
[2]; P<0.01
  Uptake ratio of unaltered CML, amount less than ^18F-CML: 0.2%
[2]; n=3
  Uptake of unaltered CML: 6.3 µg/mg of cell protein
